Experimental data reported in US8754132B2 (The Board of Trustees of the University of Illinois, priority 2010, dated 2014).
Several values for one entry are separate records, joined by “and”; a condition that tells them apart may be missing. Equal values may be shown once. Where a name gives a salt, the structure may show the parent alone. Read-outs that look alike come from different tables or passages of the source.

Experiments:
5-HT(2B) receptor [1] = target: T1, 5-HT(2B) receptor (Homo sapiens, UniProt P41595); assay: Calcium flux assay, stably transfected HEK-293 cells, 5-HT2B; type: cell-based; parameters: expressed in transfected cells; conditions: for 5-HT2B % Max ± SEM: percent of maximal activation by 5-HT, activation at 10 μM for compounds without EC50 value
5-HT(2A) receptor [2] = target: T2, 5-HT(2A) receptor (Homo sapiens, UniProt P28223); assay: cell-based; type: cell-based; parameters: expressed in transfected cells; conditions: for 5-HT2A % Max ± SEM: percent of maximal activation by 5-HT, activation at 10 μM for compounds without EC50 value
[3] = target: T3, human 5-HT(2C) (INI) receptor (Homo sapiens, UniProt P28335); assay: Calcium flux assay, stably transfected HEK-293 cells, 5-HT2C; type: cell-based; conditions: for Selectivity 2A/2C: EC50 ratio; for 5-HT2C % Max ± SEM: percent of maximal activation by 5-HT; for Emax 2C/2A / Emax 2C/2B: Emax ratio
T3 construct: expressed in transfected cells
T3 sequence (P28335 33-458): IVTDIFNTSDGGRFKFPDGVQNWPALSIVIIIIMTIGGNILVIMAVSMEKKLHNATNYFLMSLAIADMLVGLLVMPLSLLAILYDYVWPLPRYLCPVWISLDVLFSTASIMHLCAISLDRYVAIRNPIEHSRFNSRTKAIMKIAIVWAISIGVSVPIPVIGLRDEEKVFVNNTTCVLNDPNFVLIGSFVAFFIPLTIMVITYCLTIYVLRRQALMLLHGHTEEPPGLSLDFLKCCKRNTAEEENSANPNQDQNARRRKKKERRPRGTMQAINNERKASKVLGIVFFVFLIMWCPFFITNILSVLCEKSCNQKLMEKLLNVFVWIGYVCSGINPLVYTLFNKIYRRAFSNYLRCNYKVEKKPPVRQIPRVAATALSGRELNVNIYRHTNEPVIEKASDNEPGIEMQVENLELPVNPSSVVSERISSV

5-HT(2B) receptor [4] = target: T1, 5-HT(2B) receptor; assay: 5-HT(2B) antagonism, shift of 5-HT concentration curve in calcium flux experiments, Schild analysis
[5] = test system: PCP-disrupted PPI in mice; assay: Prepulse inhibition (PPI) animal study, PCP-disrupted PPI; conditions: 10 mg/kg, PCP 6 mg/kg i.p.
[6] = 10-60 mg/kg, behavioral assay, reference (15); cited from earlier work
5-HT(2A) receptor [7] = target: T2, 5-HT(2A) receptor; assay: Modulation of 5-HT(2) family receptors, Table 1, 2A Receptor; type: cell-based; conditions: for 2A Receptor ED50: NA = No activity
5-HT(2C) receptor = target: T4, 5-HT(2C) receptor (Homo sapiens, UniProt P28335); assay: Modulation of 5-HT(2) family receptors, Table 1, 2C Receptor; type: cell-based
T4 sequence (P28335 33-458): T3 sequence (P28335 33-458)

5-HT(2B) receptor [8] = target: T1, 5-HT(2B) receptor; assay: Modulation of 5-HT(2) family receptors, Table 1, 2B Receptor; type: cell-based; conditions: for 2B Receptor ED50: NA = No activity
CYP2C9 = CYP2C9 (Homo sapiens, UniProt P11712); assay: Recombinant CYP inhibition, CYP2C9; type: in vitro ADME; conditions: recombinant CYP2C9, probe tolbutamide, substrate tolbutamide, recombinant enzyme, read-out: % Inhibition at 10 μM, CYP 2C9
[9] = 5-HT2C EC50 ± SEM, Table 2, second section
[10] = Table 2, second section, read-out: 5-HT2C EC50 ± SEM

T1 sequence (P41595 whole entry): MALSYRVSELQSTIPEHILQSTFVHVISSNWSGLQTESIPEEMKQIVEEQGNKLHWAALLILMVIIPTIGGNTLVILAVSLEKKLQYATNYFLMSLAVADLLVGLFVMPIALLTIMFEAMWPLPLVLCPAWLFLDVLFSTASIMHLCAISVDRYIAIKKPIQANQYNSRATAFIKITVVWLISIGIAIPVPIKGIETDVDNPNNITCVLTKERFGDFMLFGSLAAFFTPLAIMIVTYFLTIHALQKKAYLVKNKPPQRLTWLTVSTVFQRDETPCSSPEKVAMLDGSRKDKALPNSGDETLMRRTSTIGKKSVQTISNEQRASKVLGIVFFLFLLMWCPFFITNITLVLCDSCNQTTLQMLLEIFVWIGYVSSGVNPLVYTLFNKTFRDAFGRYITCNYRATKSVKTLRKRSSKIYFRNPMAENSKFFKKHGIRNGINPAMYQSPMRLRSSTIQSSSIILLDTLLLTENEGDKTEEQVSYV
T2 sequence (P28223 whole entry): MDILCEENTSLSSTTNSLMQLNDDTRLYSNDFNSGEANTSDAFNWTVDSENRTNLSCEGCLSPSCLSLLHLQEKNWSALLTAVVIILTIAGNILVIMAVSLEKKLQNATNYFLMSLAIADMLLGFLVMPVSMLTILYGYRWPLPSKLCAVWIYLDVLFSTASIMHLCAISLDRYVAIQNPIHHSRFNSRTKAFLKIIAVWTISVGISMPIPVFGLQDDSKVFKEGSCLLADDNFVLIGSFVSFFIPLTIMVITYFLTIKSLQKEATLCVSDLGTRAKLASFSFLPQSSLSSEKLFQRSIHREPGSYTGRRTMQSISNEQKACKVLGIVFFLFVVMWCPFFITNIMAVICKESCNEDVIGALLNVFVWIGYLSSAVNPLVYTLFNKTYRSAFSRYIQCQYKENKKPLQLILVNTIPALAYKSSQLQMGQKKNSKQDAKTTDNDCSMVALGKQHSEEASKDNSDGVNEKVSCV
CYP2C9, sequence (P11712 whole entry): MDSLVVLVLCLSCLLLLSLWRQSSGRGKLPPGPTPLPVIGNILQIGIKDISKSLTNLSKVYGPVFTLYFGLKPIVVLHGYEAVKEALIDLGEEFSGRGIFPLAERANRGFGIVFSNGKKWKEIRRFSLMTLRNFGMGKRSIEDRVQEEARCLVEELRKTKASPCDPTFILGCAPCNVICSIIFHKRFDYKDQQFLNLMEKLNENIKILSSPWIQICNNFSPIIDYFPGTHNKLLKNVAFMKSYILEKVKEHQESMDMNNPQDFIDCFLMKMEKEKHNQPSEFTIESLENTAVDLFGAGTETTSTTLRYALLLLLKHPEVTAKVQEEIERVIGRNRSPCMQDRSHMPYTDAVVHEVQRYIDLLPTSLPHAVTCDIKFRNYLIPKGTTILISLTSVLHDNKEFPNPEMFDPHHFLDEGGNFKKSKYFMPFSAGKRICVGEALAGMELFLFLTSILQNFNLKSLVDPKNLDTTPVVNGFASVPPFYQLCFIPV

Question: For Cl.NC[C@@H]1C[C@H]1c1cc(F)ccc1OCC1CC1 (racemic) [Compound 12, trans-[2-(2-Cyclopropylmethyloxy-5-fluorophenyl)cyclopropyl]methylamine Hydrochloride], which “5-HT2B % Max ± SEM” value (5-HT(2B) receptor [1]; Table 2, first section) is on record?
Answer: 2% ±

Question: What about the “5-HT2A % Max ± SEM” value (5-HT(2A) receptor [2]; Table 2, first section) of the same compound?
Answer: 11% ±

Question: And the EC50 (5-HT(2A) receptor [2]; read-out: 5-HT2A EC50 ± SEM)?
Answer: 761 nM

Question: What about the EC50 ([3]; EC50 at the 5-HT(2C) receptor, running text b178, functional assays) of the same compound?
Answer: 254 nM

Question: And the “Selectivity 2A/2C” value ([3]; Table 2, first section)?
Answer: 77

Question: And the “5-HT2C % Max ± SEM” value ([3]; Table 2, first section)?
Answer: 68% ±

Question: What about the EC50 ([3]; Table 2, first section, read-out: 5-HT2C EC50 ± SEM) of the same compound?
Answer: 9.9 nM

Question: For Cl.NC[C@@H]1C[C@H]1c1cc(O)ccc1OCC1CC1 (racemic) [Compound 18, trans-[2-(2-Cyclopropylmethyloxy-5-hydroxyphenyl)cyclopropyl]methylamine Hydrochloride], which “5-HT2B % Max ± SEM” value (5-HT(2B) receptor [1]; Table 2, first section) is on record?
Answer: 6% ±

Question: And the “5-HT2A % Max ± SEM” value (5-HT(2A) receptor [2]; Table 2, first section)?
Answer: 7% ±

Question: And the EC50 ([3]; 5-HT2C EC50 ± SEM, Table 2, first section)?
Answer: 19 nM

Question: And the “5-HT2C % Max ± SEM” value ([3]; Table 2, first section)?
Answer: 68% ±

Question: For NC[C@@H]1C[C@H]1c1cc(F)ccc1OCC1CC1 (relative stereo) [Compound 12, trans-[2-(2-Cyclopropylmethyloxy-5-fluorophenyl)cyclopropyl]methylamine Hydrochloride], which “activation of the 5-HT(2B) receptor (in words)” value (5-HT(2B) receptor [1]; functional assays) is on record?
Answer: not to activate

Question: What about the “activation of the 5-HT(2A) receptor (in words)” value (5-HT(2A) receptor [2]; functional assays) of the same compound?
Answer: not to activate

Question: What about the “Emax 2C/2A” value ([3]; Table 2, first section) of the same compound?
Answer: 6.2

Question: And the “Emax 2C/2B” value ([3]; Table 2, first section)?
Answer: 38

Question: What does the source list for NC[C@@H]1C[C@H]1c1cc(O)ccc1OCC1CC1 (relative stereo) [Compound 18, trans-[2-(2-Cyclopropylmethyloxy-5-hydroxyphenyl)cyclopropyl]methylamine Hydrochloride]?
Answer: Emax 2C/2A ([3]; Table 2, first section): 9.4; Emax 2C/2B ([3]; Table 2, first section): 12

Question: With NCC1CC1c1cc(O)ccc1OCC1CC1 (single isomer, unassigned; (-)) [(−)-18] as the compound, how does the “5-HT2B % Max ± SEM” value (5-HT(2B) receptor [1]; Table 2, second section) read?
Answer: 0% ±

Question: And the “5-HT2A % Max ± SEM” value (5-HT(2A) receptor [2]; Table 2, second section)?
Answer: 3% ±

Question: And the EC50 [3, 9]?
Answer: 361 nM

Question: And the “Emax 2C/2A” value ([3]; Table 2, second section)?
Answer: 19

Question: And the “Emax 2C/2B” value ([3]; Table 2, second section)?
Answer: >>

Question: And the “5-HT2C % Max ± SEM” value ([3]; Table 2, second section)?
Answer: 51% ±

Question: What does the source list for C[C@H]1CNCCc2ccc(Cl)cc21 [2 (Lorcaserin), Lorcaserin, reference compound]?
Answer: 5-HT2B % Max ± SEM (5-HT(2B) receptor [1]; Table 2, first section): 93% ±; 5-HT2B % Max ± SEM (5-HT(2B) receptor [1]; Table 2, second section): 86% ±; 5-HT2A % Max ± SEM (5-HT(2A) receptor [2]; Table 2, first section): 24% ±; 5-HT2A % Max ± SEM (5-HT(2A) receptor [2]; Table 2, second section): 31% ±; agonist potency at the 5-HT(2C) receptor (in words) [3]: low nM potency; 5-HT2C % Max ± SEM ([3]; Table 2, first section): 99% ±; 5-HT2C % Max ± SEM ([3]; Table 2, second section): 94% ±

Question: What does the source list for NCC1CC1c1cc(F)ccc1OCC1CC1 [(+)-12, (+)-trans-(S,S)-[2-(2-Cyclopropylmethyloxy-5-fluorophenyl)cyclopropyl]methylamine Hydrochloride]?
Answer: EC50 (5-HT(2B) receptor [1]; Table 2, second section, NA: Emax ≦ 12%, read-out: 5-HT2B EC50 ± SEM): 289 nM; EC50 (5-HT(2A) receptor [2]; Table 2, second section (second screening campaign), NA: Emax ≦ 12%, read-out: 5-HT2A EC50 ± SEM): 894 nM; EC50 [3, 10]: 21 nM; Kb (5-HT(2B) receptor [4]): 3160 nM

Question: With NC[C@H]1C[C@@H]1c1cc(O)ccc1OCC1CC1 [(+)-18, (+)-trans-(S,S)-[2-(2-Cyclopropylmethyloxy-5-hydroxyphenyl)cyclopropyl]methylamine Hydrochloride] as the compound, how does the “5-HT2B % Max ± SEM” value (5-HT(2B) receptor [1]; Table 2, second section) read?
Answer: 6% ±

Question: And the EC50 (5-HT(2A) receptor [2]; 5-HT2A EC50 ± SEM, Table 2, second section (second screening campaign), NA: Emax ≦ 12%)?
Answer: 372 nM

Question: What about the “5-HT2A % Max ± SEM” value (5-HT(2A) receptor [2]; Table 2, second section) of the same compound?
Answer: 18% ±

Question: What about the EC50 [3, 9] of the same compound?
Answer: 9.3 nM

Question: And the “Selectivity 2A/2C” value ([3]; Table 2, second section)?
Answer: 40

Question: What about the “Emax 2C/2A” value ([3]; Table 2, second section) of the same compound?
Answer: 3.9

Question: What about the “Emax 2C/2B” value ([3]; Table 2, second section) of the same compound?
Answer: 11

Question: And the “5-HT2C % Max ± SEM” value ([3]; Table 2, second section)?
Answer: 70% ±

Question: And the “pA2 (±SEM), Schild analysis” value (5-HT(2B) receptor [4]; 5-HT(2B) antagonism against 5-HT, calcium flux, n=3)?
Answer: 5.79±0.07

Question: What about the “normalization of PCP-disrupted PPI” value [5] of the same compound?
Answer: able to normalize PCP-disrupted PPI

Question: Which antidepressant-like effects [6] does the source give for Cc1cccc(C2CC2CN)c1 (stereo not shown) [Compound 1] here?
Answer: moderate antidepressant-like effects

Question: What does the source list for NCCc1c[nH]c2ccc(O)cc12 [Compound 5-HT, 5-Hydroxytryptamine, reference compound]?
Answer: 5-HT2A % Max ± SEM (5-HT(2A) receptor [2]; Table 2, first section): 100%; 5-HT2A % Max ± SEM (5-HT(2A) receptor [2]; Table 2, second section): 100% ±

Question: For Cl.NCC1CC1c1ccccc1CCC1CC1 (stereo not shown) [Compound 50], which “2A Receptor ED50” value (5-HT(2A) receptor [7]) is on record?
Answer: no activity

Question: What about the “2C Receptor Emax” value (5-HT(2C) receptor) of the same compound?
Answer: 35 and 60

Question: What about the “2B Receptor ED50” value (5-HT(2B) receptor [8]) of the same compound?
Answer: no activity

Question: With Cl.NCC1CC1c1cc(Br)ccc1CCC1CC1 (stereo not shown) [Compound 51] as the compound, how does the “2A Receptor ED50” value (5-HT(2A) receptor [7]) read?
Answer: no activity

Question: And the “2C Receptor Emax” value (5-HT(2C) receptor)?
Answer: 92

Question: And the “2B Receptor ED50” value (5-HT(2B) receptor [8])?
Answer: no activity

Question: For Cc1ccc(CCC2CC2)c(C2CC2CN)c1.Cl (stereo not shown) [Compound 52], which “2A Receptor Emax” value (5-HT(2A) receptor [7]) is on record?
Answer: 47

Question: And the “2C Receptor Emax” value (5-HT(2C) receptor)?
Answer: 98

Question: And the “2B Receptor Emax” value (5-HT(2B) receptor [8])?
Answer: 35

Question: For CC(C)c1ccc(CCC2CC2)c(C2CC2CN)c1.Cl (stereo not shown) [Compound 53], which “2A Receptor Emax” value (5-HT(2A) receptor [7]) is on record?
Answer: 92

Question: What about the “2C Receptor Emax” value (5-HT(2C) receptor) of the same compound?
Answer: 93

Question: What about the “2B Receptor Emax” value (5-HT(2B) receptor [8]) of the same compound?
Answer: 66

Question: Which inhibition at 20 min, 10 µM (CYP2C9) does the source give for Nc1ccc(S(=O)(=O)Nc2ccnn2-c2ccccc2)cc1 [sulfaphenazole, reference compound] here?
Answer: 94.7%

Question: What does the source list for “trans-[2-(2-cyclopropylmethyloxy-5-fluorophenyl)cyclopropyl]-methylamine hydrochloride [(−)-12]”?
Answer: 5-HT2B % Max ± SEM (5-HT(2B) receptor [1]; Table 2, second section): 4% ±; 5-HT2A % Max ± SEM (5-HT(2A) receptor [2]; Table 2, second section): 0% ±; Emax 2C/2A ([3]; Table 2, second section): >>; Emax 2C/2B ([3]; Table 2, second section): 8.0; 5-HT2C % Max ± SEM ([3]; Table 2, second section): 35% ±; EC50 [3, 10]: 918 nM; EC50 ([3]; read-out: EC50 in the 5-HT(2C) assay, running text b178): ~2400 nM
